For 28 molecules, T/C results are on record in PubChem BioAssay AID330 (DTP/NCI, 2004).

Where “and” joins values, the source holds several entries; their conditions need not be identical. Identical values can stand only once. Inconclusive results and toxic doses are left out.

The experiment has as its system P388 leukemia ip, CD2F1 mice, survival T/C. Kind of experiment: NCI In Vivo Anticancer Drug Screen. Data for tumor model P388 Leukemia (intraperitoneal) in CD2F1 (CDF1) mice. Particulars: endpoint: median survival time, higher = longer survival. The procedure, abridged: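 Mice carrying the transplanted tumor received test compound or vehicle. Survival was recorded in each group, and the value is the treated-group measurement divided by that of the vehicle-treated control group.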

Setting [1] is: dose: 25.0 mg/kg/injection, schedule: Q01DX005 (ip), vehicle: Klucel (hydroxypropylcellulose) (HPC).
Setting [2] is: dose: 50.0 mg/kg/injection, schedule: Q01DX005 (ip), vehicle: Klucel (hydroxypropylcellulose) (HPC).
[3] abbreviates: dose: 100.0 mg/kg/injection, schedule: Q01DX005 (ip), vehicle: Klucel (hydroxypropylcellulose) (HPC).
The mark [4] stands for this setting: dose: 200.0 mg/kg/injection, schedule: Q01DX005 (ip), vehicle: Klucel (hydroxypropylcellulose) (HPC).
[5] abbreviates: dose: 60.0 mg/kg/injection, schedule: Q01DX005 (ip), vehicle: saline with Tween-80.
The mark [6] stands for this setting: dose: 120.0 mg/kg/injection, schedule: Q01DX005 (ip), vehicle: saline with Tween-80.
Setting [7] is: dose: 240.0 mg/kg/injection, schedule: Q01DX005 (ip), vehicle: saline with Tween-80.
Where [8] appears, read: dose: 50.0 mg/kg/injection, schedule: Q01DX005 (ip), vehicle: saline.
[9] abbreviates: dose: 100.0 mg/kg/injection, schedule: Q01DX005 (ip), vehicle: saline.
Where [10] appears, read: dose: 200.0 mg/kg/injection, schedule: Q01DX005 (ip), vehicle: saline.
[11] abbreviates: dose: 12.5 mg/kg/injection, schedule: Q01DX009 (ip), vehicle: saline with Tween-80.
[12] abbreviates: dose: 25.0 mg/kg/injection, schedule: Q01DX009 (ip), vehicle: saline with Tween-80.
Where [13] appears, read: dose: 50.0 mg/kg/injection, schedule: Q01DX009 (ip), vehicle: saline with Tween-80.
The mark [14] stands for this setting: dose: 100.0 mg/kg/injection, schedule: Q01DX009 (ip), vehicle: saline with Tween-80.
[15] abbreviates: dose: 200.0 mg/kg/injection, schedule: Q01DX009 (ip), vehicle: saline with Tween-80.
The mark [16] stands for this setting: dose: 50.0 mg/kg/injection, schedule: Q01DX005 (ip), vehicle: saline with Tween-80.
Setting [17] is: dose: 200.0 mg/kg/injection, schedule: Q01DX005 (ip), vehicle: saline with Tween-80.
[18] abbreviates: dose: 100.0 mg/kg/injection, schedule: Q01DX001 (ip), vehicle: saline.
The mark [19] stands for this setting: dose: 200.0 mg/kg/injection, schedule: Q01DX001 (ip), vehicle: saline.
Setting [20] is: dose: 400.0 mg/kg/injection, schedule: Q01DX001 (ip), vehicle: saline.

As for `COc1cc(C)cc(OC)c1`, the T/C by setting is: under setting [1], 101 % of control; under setting [2], 100 % of control; under setting [3], 100 % of control; under setting [4], 110 % of control.
For the molecule `COc1ccc(Cc2cc3c(cc2OCC(=O)N2CCOCC2)OCO3)cc1`, the T/C runs as follows: under setting [2], 97 % of control; under setting [3], 89 % of control; under setting [4], 97 % of control.
As for `Cc1cc(C)n(-c2cc(N3CCOCC3)ncn2)n1`, the T/C reads like this: (dose: 50.0 mg/kg/injection, schedule: Q01DX009 (ip), vehicle: saline) 96 % of control; (dose: 100.0 mg/kg/injection, schedule: Q01DX009 (ip), vehicle: saline) 95 % of control; (dose: 200.0 mg/kg/injection, schedule: Q01DX009 (ip), vehicle: saline) 98 % of control.
For `CC(=O)C1=CN(C)c2ccccc2[S@@]1=O`, the T/C under setting [2] was 103 % of control, the T/C under setting [3] is 100 % of control and the T/C under setting [4] is 100 % of control.
Regarding `Cc1ccc(C(O)c2cnc(C)n2Cc2ccccc2)cc1` (stereo not given), the T/C by setting is: under setting [5], 100 % of control; under setting [6], 98 % of control; under setting [7], 92 % of control.
With `COC(=O)c1ncn(CC#N)n1`, the T/C under setting [8] is 110 % of control, the T/C under setting [9] was 112 % of control and the T/C under setting [10] was 105 % of control.
On to `O=C1c2ccccc2C(=O)c2cscc21`, for which the T/C is 100 % of control under setting [11], 97 % of control under setting [12], 97 % of control under setting [13] and 98 % of control under setting [14].
As for `Cc1ccc(C(O)(c2nc3ccccc3s2)c2nc3ccccc3s2)cc1`, the T/C is, setting by setting: under setting [13], 101 % of control; under setting [14], 112 % of control; under setting [15], 113 % of control.
For the molecule `COc1cc2cc3c(c(O)c2c(O)c1/C=C/C(C)C)C(=O)CC(C)(OC(C)=O)C3` (stereo not given), the T/C by setting is: (dose: 2.5 mg/kg/injection, schedule: Q01DX005 (ip), vehicle: Klucel (hydroxypropylcellulose) (HPC)) 103 % of control; (dose: 5.0 mg/kg/injection, schedule: Q01DX005 (ip), vehicle: Klucel (hydroxypropylcellulose) (HPC)) 117 % of control.
As for `CC(=O)c1ccc(Cl)c(N=Cc2cc(Br)ccc2O)c1`, the T/C runs as follows: under setting [2], 88 % of control; under setting [3], 95 % of control; under setting [4], 92 % of control.
With `COc1cccc2c1C(=O)c1c(O)c3c(c(O)c1C2=O)C[C@@](O)(C(C)O)C[C@@H]3OC1CC(NCc2ccccc2)C(O)C(C)O1` (stereo not given in full), the T/C is 158 % of control (dose: 0.78 mg/kg/injection, schedule: Q01DX009 (ip), vehicle: water); 163 % of control (dose: 1.56 mg/kg/injection, schedule: Q01DX009 (ip), vehicle: water); 181 % of control and 194 % of control (dose: 3.13 mg/kg/injection, schedule: Q01DX009 (ip), vehicle: water); 215 % of control and 226 % of control (dose: 6.25 mg/kg/injection, schedule: Q01DX009 (ip), vehicle: water).
With `CCOC(=O)c1ccc(NC(=S)Nc2nccs2)cc1`, the T/C is 99 % of control (dose: 25.0 mg/kg/injection, schedule: Q01DX009 (ip), vehicle: distilled water + Tween-80); 101 % of control (dose: 50.0 mg/kg/injection, schedule: Q01DX009 (ip), vehicle: distilled water + Tween-80); 95 % of control (dose: 100.0 mg/kg/injection, schedule: Q01DX009 (ip), vehicle: distilled water + Tween-80); 92 % of control (dose: 200.0 mg/kg/injection, schedule: Q01DX009 (ip), vehicle: distilled water + Tween-80); 92 % of control (dose: 400.0 mg/kg/injection, schedule: Q01DX009 (ip), vehicle: distilled water + Tween-80).
Consider `O=C1CCCCCC2=NC12` (stereo not given), for which the T/C by setting is: (dose: 6.25 mg/kg/injection, schedule: Q01DX005 (ip), vehicle: Klucel (hydroxypropylcellulose) (HPC)) 105 % of control and 90 % of control; (dose: 12.5 mg/kg/injection, schedule: Q01DX005 (ip), vehicle: Klucel (hydroxypropylcellulose) (HPC)) 103 % of control and 109 % of control; under setting [1], 113 % of control and 118 % of control; under setting [2], 116 % of control.
As to `O=C1NN=C(c2ccccc2)SC1c1ccccc1` (stereo not given), the T/C was 93 % of control (dose: 12.5 mg/kg/injection, schedule: Q01DX005 (ip), vehicle: saline with Tween-80); 95 % of control (dose: 25.0 mg/kg/injection, schedule: Q01DX005 (ip), vehicle: saline with Tween-80); 90 % of control and 92 % of control under setting [16]; 90 % of control under setting [17].
With `CC(Cl)(c1ccccc1)C1OCCO1` (stereo not given), the T/C is 100 % of control under setting [5], 101 % of control under setting [6] and 102 % of control under setting [7].
On to `COC1=CCCC(C(C)=O)C1Sc1ccccc1` (stereo not given), for which the T/C was 100 % of control under setting [18], 102 % of control under setting [19] and 100 % of control under setting [20].
Turning to `Cn1nc(C(=O)O)c(=O)[nH]c1=O`, the T/C reads like this: under setting [8], 98 % of control; under setting [9], 95 % of control; under setting [10], 98 % of control.
In the case of `Nc1snnc1C(=S)NC=S`, the T/C is, setting by setting: under setting [18], 102 % of control; under setting [19], 105 % of control; under setting [20], 100 % of control.
As for `Cc1ccc(S(=O)(=O)OC[C@H]2CCCC[C@H]2COS(=O)(=O)c2ccc(C)cc2)cc1`, the T/C (dose: 100.0 mg/kg/injection, schedule: Q04DX003 (ip), vehicle: Klucel (hydroxypropylcellulose) (HPC)) is 113 % of control; the T/C (dose: 200.0 mg/kg/injection, schedule: Q04DX003 (ip), vehicle: Klucel (hydroxypropylcellulose) (HPC)) was 114 % of control; the T/C (dose: 400.0 mg/kg/injection, schedule: Q04DX003 (ip), vehicle: Klucel (hydroxypropylcellulose) (HPC)) is 119 % of control.
`NC(Cc1ccc(Cl)cc1)c1nn[nH]n1` (stereo not given): the T/C under setting [12] is 99 % of control, the T/C under setting [13] was 99 % of control and the T/C under setting [14] was 101 % of control.
`CN(CCCN(C)N=Nc1ccccc1C(=O)O)N=Nc1ccccc1C(=O)O`: the T/C is 86 % of control under setting [14] and 90 % of control under setting [15].
On to `CN(C)N=Nc1ccc(-c2ccccc2)cc1`, for which the T/C reads like this: under setting [11], 100 % of control and 104 % of control; under setting [12], 102 % of control and 115 % of control; under setting [13], 101 % of control and 110 % of control; under setting [14], 102 % of control and 117 % of control.
As to `[CH3][Ga][CH3].[CH3][Ga][CH3].[CH3][Ga][CH3].[CH3][Ga][CH3].[OH3+].[OH3+].[OH3+].[OH3+]`, the T/C runs as follows: (dose: 5.0 mg/kg/injection, schedule: Q04DX003 (ip), vehicle: saline with Tween-80) 90 % of control; (dose: 10.0 mg/kg/injection, schedule: Q04DX003 (ip), vehicle: saline with Tween-80) 90 % of control.
As for `O=[N+]([O-])/C=C/c1cc2ccc3ccccc3c2[nH]1`, the T/C was 94 % of control under setting [5], 89 % of control under setting [6] and 102 % of control under setting [7].
In the case of `CC(=O)NCCc1ccc(OC(C)=O)c(OC(C)=O)c1`, the T/C runs as follows: under setting [16], 99 % of control; (dose: 100.0 mg/kg/injection, schedule: Q01DX005 (ip), vehicle: saline with Tween-80) 103 % of control; under setting [17], 107 % of control.
Consider `COc1ccc(/C(C)=N/N=c2/sc3ccccc3n2CC(=O)O)cc1`, for which the T/C is 101 % of control (dose: 100.0 mg/kg/injection, schedule: Q01DX001 (ip), vehicle: saline with Tween-80); 101 % of control (dose: 200.0 mg/kg/injection, schedule: Q01DX001 (ip), vehicle: saline with Tween-80); 91 % of control (dose: 400.0 mg/kg/injection, schedule: Q01DX001 (ip), vehicle: saline with Tween-80).
Take `c1cc(-c2cc3ccc(C4=NCCN4)cc3[nH]2)ccc1C1=NCCN1`: the T/C runs as follows: (dose: 6.25 mg/kg/injection, schedule: Q04DX003 (ip), vehicle: saline) 116 % of control; (dose: 12.5 mg/kg/injection, schedule: Q04DX003 (ip), vehicle: saline) 118 % of control; (dose: 50.0 mg/kg/injection, schedule: Q04DX003 (ip), vehicle: saline) 154 % of control and 171 % of control and 172 % of control.
`COC(=O)n1c(=O)ccc(=O)n1C(=O)OC`: the T/C is 100 % of control and 103 % of control (dose: 50.0 mg/kg/injection, schedule: Q01DX001 (ip), vehicle: saline); 98 % of control and 100 % of control and 106 % of control under setting [18]; 100 % of control and 106 % of control and 115 % of control under setting [19]; 100 % of control and 112 % of control and 122 % of control under setting [20].
